How the values were obtained:
[1] = Stimulation of growth hormone in rat pituitary cell; format: functional, cell-based; details: pituitary gland cell
[2] = tested on: Canis familiaris; experiment: Effect on growth hormone release in Beagle dog assessed as increase of GH level at 0.25 mg/kg, po relative to basal level; format: functional, Canis lupus familiaris
[3] = tested on: Canis familiaris; experiment: Effect on growth hormone release in Beagle dog assessed as increase of GH level at 0.50 mg/kg, po relative to basal level; format: functional, Canis lupus familiaris; details: dose 0.5 mg/kg
[4] = tested on: Canis familiaris; experiment: Effect on growth hormone release in Beagle dog assessed as increase of GH level at 0.06 mg/kg, po relative to basal level; format: functional, Canis lupus familiaris
[5] = tested on: Canis familiaris; experiment: Effect on growth hormone release in Beagle dog assessed as increase of GH level at 0.01 mg/kg, iv relative to basal level; format: functional, Canis lupus familiaris

Molecule `CNC(=O)[C@H]1CC2(CCN(C(=O)[C@@H](CCCc3ccccc3)NC(=O)C(C)(C)N)CC2)c2ccccc21` has an EC50 [1] of 3.8 nM.

Work on `CCNC(=O)[C@H]1CC2(CCN(C(=O)[C@@H](CCCc3ccccc3)NC(=O)C(C)(C)N)CC2)c2ccccc21` yielded an EC50 [1] of 2.1 nM.

`CC(C)(N)C(=O)N[C@H](CCCc1ccccc1)C(=O)N1CCC2(CC1)C[C@H](C(N)=O)c1ccccc12` gave an EC50 [1] of 0.35 nM.

`CNC(=O)[C@@H]1CC2(CCN(C(=O)[C@@H](CCCc3ccccc3)NC(=O)C(C)(C)N)CC2)c2ccccc21` gave an EC50 [1] of 0.4 nM.

For `CC(C)(N)C(=O)N[C@H](CCCc1ccccc1)C(=O)N1CCC2(CC1)C[C@@H](C(=O)NCCNS(C)(=O)=O)c1ccccc12`, the EC50 [1] was 0.21 nM.

For `CC(C)(N)C(=O)N[C@H](COCc1ccccc1)C(=O)N1CCC2(CC1)CN(S(C)(=O)=O)c1ccccc12` [IBUTAMOREN], the EC50 [1] was 1.5 nM.

For `C=CCNC(=O)[C@@H]1CC2(CCN(C(=O)[C@@H](CCCc3ccccc3)NC(=O)C(C)(C)N)CC2)c2ccccc21`, the EC50 [1] was 0.14 nM.

Molecule `CCNC(=O)[C@@H]1CC2(CCN(C(=O)[C@@H](CCCc3ccccc3)NC(=O)C(C)(C)N)CC2)c2ccccc21` has an EC50 [1] of 0.9 nM.

In the case of `CC(C)(N)C(=O)N[C@H](CCCc1ccccc1)C(=O)N1CCC2(CC1)C[C@@H](C(=O)Nc1ccccc1)c1ccccc12`, the EC50 [1] is reported as 1.2 nM.

`CC(C)(N)C(=O)N[C@H](CCCc1ccccc1)C(=O)N1CCC2(CC1)C[C@H](C(=O)NCCCO)c1ccccc12` gave an EC50 [1] of 0.85 nM.

For `CC(C)(N)C(=O)N[C@H](CCCc1ccccc1)C(=O)N1CCC2(CC1)C[C@@H](C(=O)NCCCCO)c1ccccc12`, the EC50 [1] was 0.44 nM.

For `CC(C)(N)C(=O)N[C@H](CCCc1ccccc1)C(=O)N1CCC2(CC1)C[C@@H](C(N)=O)c1ccccc12.Cl`, the Fold change [2] was 4 and the EC50 [1] was 0.09 nM.

For `CC(C)(N)C(=O)N[C@H](CCCc1ccccc1)C(=O)N1CCC2(CC1)C[C@@H](C(=O)NCCO)c1ccccc12.Cl`, the Fold change [3] was 4 and the EC50 [1] was 0.51 nM.

`CC(C)(N)C(=O)N[C@H](CCCc1ccccc1)C(=O)N1CCC2(CC1)C[C@@H](C(=O)NCCCO)c1ccccc12` gave an EC50 [1] of 0.41 nM.

`CCCNC(=O)[C@@H]1CC2(CCN(C(=O)[C@@H](CCCc3ccccc3)NC(=O)C(C)(C)N)CC2)c2ccccc21.Cl` gave a Fold change [4] of 4, a Fold change [5] of 4 and an EC50 [1] of 0.15 nM.

`CC(C)NC(=O)[C@@H]1CC2(CCN(C(=O)[C@@H](CCCc3ccccc3)NC(=O)C(C)(C)N)CC2)c2ccccc21` gave an EC50 [1] of 0.3 nM.

`CC(C)(N)C(=O)N[C@H](CCCc1ccccc1)C(=O)N1CCC2(CC1)C[C@H](C(=O)NCCO)c1ccccc12` gave an EC50 [1] of 0.45 nM.

With `CC(C)(N)C(=O)N[C@H](CCCc1ccccc1)C(=O)N1CCC2(CC1)C[C@H](C(=O)NCCCCO)c1ccccc12` the EC50 [1] was 0.73 nM.
